Measurements as given in ChEMBL document CHEMBL1208678, “Synthesis of some new 4(3H)-quinazolinone-2-carboxaldehyde thiosemicarbazones and their metal complexes and a study on their anticonvulsant, analgesic, cytotoxic and antimicrobial activities - part-1” (Eur J Med Chem, 2010).
Values after ≈ are worked out from the molar mass of the structure shown. Active and inactive are the calls of the source. No cut-off for these calls is given here.

Experiments:
Rattus norvegicus [1] = test: Anticonvulsant activity against pentylenetetrazole-induced seizure in Wistar rat assessed as shock latency time at 2 mg/kg, ip administered 45 mins before pentylenetetrazole challenge (reference value: 118 seconds); type: functional; conditions: route intraperitoneal
Rattus norvegicus [2] = test: Anticonvulsant activity against pentylenetetrazole-induced seizure in Wistar rat assessed as duration of seizure at 2 mg/kg, ip administered 45 mins before pentylenetetrazole challenge (reference value: 312 seconds); type: functional; conditions: route intraperitoneal
Mus musculus [3] = test: Analgesic activity in Swiss albino mouse assessed as reaction time at 2 mg/kg, ip after 0.5 hrs by hotplate method (reference value: 7.4 seconds); type: functional; conditions: route intraperitoneal
Mus musculus [4] = test: Analgesic activity in Swiss albino mouse assessed as reaction time at 2 mg/kg, ip after 1 hr by hotplate method (reference value: 7.5 seconds); type: functional; conditions: route intraperitoneal
Rattus norvegicus [5] = test: Anticonvulsant activity in Wistar rat assessed as protection against pentylenetetrazole-induced seizure at 2 mg/kg, ip administered 45 mins before pentylenetetrazole challenge; type: functional, organism-based; parameters: dose 2 mg/kg
Rattus norvegicus [6] = test: Anticonvulsant activity against pentylenetetrazole-induced seizure in Wistar rat assessed as duration of seizure at 50 mg/kg, ip administered 45 mins before pentylenetetrazole challenge (reference value: 312 seconds); type: functional; conditions: route intraperitoneal
Rattus norvegicus [7] = test: Anticonvulsant activity against pentylenetetrazole-induced seizure in Wistar rat assessed as shock latency time at 50 mg/kg, ip administered 45 mins before pentylenetetrazole challenge (reference value: 118 seconds); type: functional; conditions: route intraperitoneal
Rattus norvegicus [8] = test: Anticonvulsant activity in Wistar rat assessed as protection against pentylenetetrazole-induced seizure at 50 mg/kg, ip administered 45 mins before pentylenetetrazole challenge; type: functional, organism-based; parameters: dose 50 mg/kg
Mus musculus [9] = test: Acute toxicity in mouse assessed as mortality up to 1200 mg/kg, po; type: organism-based; parameters: dose 1200 mg/kg, route oral; conditions: in vivo
Fusarium oxysporum [10] = test: Antifungal activity against Fusarium oxysporum at 100 ug after 24 hrs by paper disc method; type: functional; conditions: for zone of inhibition at 100 µg/disc: read-out: IZ
Aspergillus ochraceus = test: Antifungal activity against Aspergillus ochraceus Wilhelm at 100 ug after 24 hrs by paper disc method; type: functional; conditions: for zone of inhibition at 100 µg/disc: read-out: IZ
Bacillus subtilis [11] = test: Antibacterial activity against Bacillus subtilis ATCC 6633 at 100 ug after 24 hrs by paper disc method; type: functional; conditions: ATCC 6633, 24 h, read-out: IZ
Staphylococcus aureus [12] = test: Antibacterial activity against Staphylococcus aureus ATCC 6538 at 100 ug after 24 hrs by paper disc method; type: functional; conditions: ATCC 6538, 24 h, read-out: IZ
Escherichia coli [13] = test: Antibacterial activity against Escherichia coli ATCC 7839 at 100 ug after 24 hrs by paper disc method; type: functional; conditions: ATCC 7839, 24 h, read-out: IZ
Pseudomonas aeruginosa = test: Antibacterial activity against Pseudomonas aeruginosa ATCC 9027 at 100 ug after 24 hrs by paper disc method; type: functional; conditions: ATCC 9027, 24 h, read-out: IZ
Mus musculus [14] = test: Analgesic activity in Swiss albino mouse assessed as reaction time at 50 mg/kg, ip after 0.5 hrs by hotplate method (reference value: 7.4 seconds); type: functional; conditions: route intraperitoneal
[15] = Cytotoxicity against mouse EAC cells assessed as cell death at 50 ug/ml after 2 hrs by Trypan blue exclusion method; type: functional, Ehrlich
Mus musculus [16] = test: Analgesic activity in Swiss albino mouse assessed as reaction time at 50 mg/kg, ip after 1 hr by hotplate method (reference value: 7.5 seconds); type: functional; conditions: route intraperitoneal
[17] = Cytotoxicity against mouse EAC cells assessed as cell death at 25 ug/ml after 2 hrs by Trypan blue exclusion method; type: functional, Ehrlich
[18] = Cytotoxicity against mouse EAC cells assessed as cell death at 100 ug/ml after 2 hrs by Trypan blue exclusion method; type: functional, Ehrlich
Bacillus subtilis [19] = test: Antibacterial activity against Bacillus subtilis ATCC 6633 after 24 hrs by twofold serial dilution method; type: functional; conditions: ATCC 6633, 24 h
Staphylococcus aureus [20] = test: Antibacterial activity against Staphylococcus aureus ATCC 6538 after 24 hrs by twofold serial dilution method; type: functional; conditions: ATCC 6538, 24 h
Escherichia coli [21] = test: Antibacterial activity against Escherichia coli ATCC 7839 after 24 hrs by twofold serial dilution method; type: functional; conditions: ATCC 7839, 24 h
Fusarium oxysporum [22] = test: […] activity against Fusarium oxysporum after 24 hrs by twofold serial dilution method; type: functional

Compound: CN1C(=O)CN=C(c2ccccc2)c2cc(Cl)ccc21 [DIAZEPAM]
- Time (Rattus norvegicus [1]): 3600 s
- Time (Rattus norvegicus [2]): 0 s
- Time (Mus musculus [3]): 62.9 s
- Time (Mus musculus [4]): 65.9 s
- Activity (Rattus norvegicus [5]): Active

Compound: CCNC(=S)N/N=C/c1nc2ccc(I)cc2c(=O)n1-c1ccc(F)cc1
- Time (Rattus norvegicus [6]): 520 s
- Time (Rattus norvegicus [7]): 280 s
- Activity (Rattus norvegicus [8]): inactive
- Activity (Mus musculus [9]): Non-toxic

Compound: NYSTATIN
- inhibition zone (IZ) (Fusarium oxysporum [10]): 20 mm
- inhibition zone (IZ) (Aspergillus ochraceus): 12 mm

Compound: CCn1cc(C(=O)O)c(=O)c2cc(F)c(N3CCNCC3)cc21 [NORFLOXACIN]
- zone of inhibition at 100 µg/disc (Bacillus subtilis [11]): 35 mm
- zone of inhibition at 100 µg/disc (Staphylococcus aureus [12]): 27 mm
- zone of inhibition at 100 µg/disc (Escherichia coli [13]): 17 mm
- zone of inhibition at 100 µg/disc (Pseudomonas aeruginosa): 15 mm

Compound: CNC(=S)N/N=C/c1nc2ccc(I)cc2c(=O)n1-c1ccc(F)cc1
- Time (Rattus norvegicus [6]): 580 s
- Time (Mus musculus [14]): 11.1 s
- Time (Rattus norvegicus [7]): 380 s
- Activity [15]: 0%
- Time (Mus musculus [16]): 19.2 s
- Activity (Rattus norvegicus [8]): inactive
- Activity (Mus musculus [9]): Non-toxic
- Activity [17]: 0%
- Activity [18]: 20%

Compound: NC(=S)N/N=C/c1nc2ccc(I)cc2c(=O)n1-c1ccccc1
- Time (Mus musculus [14]): 18.6 s
- zone of inhibition at 100 µg/disc (Fusarium oxysporum [10]): 23 mm
- zone of inhibition at 100 µg/disc (Aspergillus ochraceus): 0 mm
- MIC (Bacillus subtilis [19]): 100 µg/mL (≈ 223 µM)
- zone of inhibition at 100 µg/disc (Bacillus subtilis [11]): 9 mm
- zone of inhibition at 100 µg/disc (Staphylococcus aureus [12]): 8 mm
- Time (Mus musculus [16]): 26.6 s
- MIC (Staphylococcus aureus [20]): 100 µg/mL (≈ 223 µM)
- MIC (Escherichia coli [21]): 100 µg/mL (≈ 223 µM)
- Activity (Mus musculus [9]): Non-toxic
- zone of inhibition at 100 µg/disc (Escherichia coli [13]): 0 mm
- zone of inhibition at 100 µg/disc (Pseudomonas aeruginosa): 0 mm
- MIC (Fusarium oxysporum [22]): 12.5 µg/mL (≈ 27.8 µM)

Compound: CCNC(=S)N/N=C/c1nc2ccc(I)cc2c(=O)n1-c1ccccc1
- zone of inhibition at 100 µg/disc (Fusarium oxysporum [10]): 15 mm
- zone of inhibition at 100 µg/disc (Aspergillus ochraceus): 0 mm
- zone of inhibition at 100 µg/disc (Bacillus subtilis [11]): 0 mm
- zone of inhibition at 100 µg/disc (Staphylococcus aureus [12]): 0 mm
- Activity (Mus musculus [9]): Non-toxic
- zone of inhibition at 100 µg/disc (Escherichia coli [13]): 0 mm
- zone of inhibition at 100 µg/disc (Pseudomonas aeruginosa): 0 mm

Compound: O=c1c2cc(I)ccc2nc(/C=N/NC(=S)Nc2ccccc2)n1-c1ccc(F)cc1
- Time (Rattus norvegicus [6]): 350 s
- Time (Mus musculus [14]): 8 s
- zone of inhibition at 100 µg/disc (Fusarium oxysporum [10]): 25 mm
- Time (Rattus norvegicus [7]): 120 s
- zone of inhibition at 100 µg/disc (Aspergillus ochraceus): 0 mm
- Activity [15]: 0%
- zone of inhibition at 100 µg/disc (Bacillus subtilis [11]): 0 mm
- zone of inhibition at 100 µg/disc (Staphylococcus aureus [12]): 0 mm
- Time (Mus musculus [16]): 13.5 s
- Activity (Rattus norvegicus [8]): inactive
- Activity (Mus musculus [9]): Non-toxic
- zone of inhibition at 100 µg/disc (Escherichia coli [13]): 8 mm
- Activity [17]: 0%
- zone of inhibition at 100 µg/disc (Pseudomonas aeruginosa): 0 mm
- Activity [18]: 0%

Compound: CC[C@H]1OC(=O)[C@H](C)[C@@H](O[C@H]2C[C@@](C)(OC)[C@@H](O)[C@H](C)O2)[C@H](C)[C@@H](O[C@@H]2O[C@H](C)C[C@H](N(C)C)[C@H]2O)[C@](C)(O)C[C@@H](C)C(=O)[C@H](C)[C@@H](O)[C@]1(C)O [ERYTHROMYCIN]
- zone of inhibition at 100 µg/disc (Bacillus subtilis [11]): 30 mm
- zone of inhibition at 100 µg/disc (Escherichia coli [13]): 15 mm
- zone of inhibition at 100 µg/disc (Pseudomonas aeruginosa): 16 mm

Compound: O=c1c2cc(I)ccc2nc(/C=N/NC(=S)Nc2ccccc2)n1-c1ccccc1
- Time (Mus musculus [14]): 10.2 s
- Time (Mus musculus [16]): 19.2 s
- Activity (Mus musculus [9]): Non-toxic

Compound: CNC(=S)N/N=C/c1nc2ccc(I)cc2c(=O)n1-c1ccccc1
- Activity (Mus musculus [9]): Non-toxic
- MIC (Fusarium oxysporum [22]): 6 µg/mL (≈ 13 µM)

Compound: NC(=S)N/N=C/c1nc2ccc(I)cc2c(=O)n1-c1ccc(F)cc1
- Time (Rattus norvegicus [6]): 760 s
- Time (Mus musculus [14]): 19.2 s
- Time (Rattus norvegicus [7]): 660 s
- Activity [15]: 10%
- Time (Mus musculus [16]): 27.2 s
- Activity (Rattus norvegicus [8]): inactive
- Activity (Mus musculus [9]): Non-toxic
- Activity [17]: 0%
- MIC (Fusarium oxysporum [22]): 12.5 µg/mL (≈ 26.8 µM)
- Activity [18]: 40%
